Experiment in all cases: Kinase assay, binding constants (Kd), kinase-tagged T7 phage, qPCR
Assay [1] has as its target FGFR2 (Homo sapiens (Human), UniProt P21802). The method, then: (§1) Kinase-tagged T7 phage strains were prepared in an E. coli host derived from the BL21 strain. E. coli were grown to log-phase and infected with T7 phage and incubated with shaking at 32° C. until lysis. The lysates were centrifuged and filtered to remove cell debris. Streptavidin-coated magnetic beads were treated with biotinylated small molecule ligands for 30 minutes at room temperature to generate affinity resins for kinase assays. The liganded beads were blocked with excess biotin and washed with blocking buffer SeaBlock (Pierce), […], 1 mM DTT to remove unbound ligand and to reduce non-specific binding.
(§2) Test compounds were prepared as 111λ stocks in 10000 DMS0. Kds were determined using an 11-point 3-fold compound dilution series with three DMSO control points. […] The compounds were then diluted directly into the assays such that the final concentration of DMSO was 0.9%. All reactions performed in polypropylene 384-well plate. Each was a final volume of 0.02 ml. […] The beads were then re-suspended in elution buffer (1×PBS, 0.05% Tween […] non-biotinylated affinity ligand) and incubated at room temperature with shaking for 30 minutes. The kinase concentration in the eluates was measured by qPCR.
(§3) Binding constants were calculated with a standard dose-response curve using the Hill equation: […]
(§4) The Hill Slope was set to −1. Curves were fitted using a non-linear least square fit with the Levenberg-Marquardt algorithm.

Assay [2] deals with FGFR1 (Homo sapiens (Human), UniProt P11362). The protocol:
as §1, §2, §3, §4

Assay [3] addresses FGFR4 (Homo sapiens (Human), UniProt P22455). The protocol:
as §1, §2, §3, §4

For assay [4], the target named is FGFR3 (Homo sapiens (Human), UniProt P22607). The method, then:
as §1, §2, §3, §4

The target in assay [5] is FGFR3 (V555M) (Homo sapiens (Human), UniProt P22607, V555M). The note with it: V555M mutant. The protocol: as §1, §2, §3, §4

We go through 20 molecules from patent US20240109865A1, “INDAZOLE COMPOUNDS AS KINASE INHIBITORS” (TYRA BIOSCIENCES, INC., priority 2020, published 2024).

FGFR3, sequence (P22607 23-806): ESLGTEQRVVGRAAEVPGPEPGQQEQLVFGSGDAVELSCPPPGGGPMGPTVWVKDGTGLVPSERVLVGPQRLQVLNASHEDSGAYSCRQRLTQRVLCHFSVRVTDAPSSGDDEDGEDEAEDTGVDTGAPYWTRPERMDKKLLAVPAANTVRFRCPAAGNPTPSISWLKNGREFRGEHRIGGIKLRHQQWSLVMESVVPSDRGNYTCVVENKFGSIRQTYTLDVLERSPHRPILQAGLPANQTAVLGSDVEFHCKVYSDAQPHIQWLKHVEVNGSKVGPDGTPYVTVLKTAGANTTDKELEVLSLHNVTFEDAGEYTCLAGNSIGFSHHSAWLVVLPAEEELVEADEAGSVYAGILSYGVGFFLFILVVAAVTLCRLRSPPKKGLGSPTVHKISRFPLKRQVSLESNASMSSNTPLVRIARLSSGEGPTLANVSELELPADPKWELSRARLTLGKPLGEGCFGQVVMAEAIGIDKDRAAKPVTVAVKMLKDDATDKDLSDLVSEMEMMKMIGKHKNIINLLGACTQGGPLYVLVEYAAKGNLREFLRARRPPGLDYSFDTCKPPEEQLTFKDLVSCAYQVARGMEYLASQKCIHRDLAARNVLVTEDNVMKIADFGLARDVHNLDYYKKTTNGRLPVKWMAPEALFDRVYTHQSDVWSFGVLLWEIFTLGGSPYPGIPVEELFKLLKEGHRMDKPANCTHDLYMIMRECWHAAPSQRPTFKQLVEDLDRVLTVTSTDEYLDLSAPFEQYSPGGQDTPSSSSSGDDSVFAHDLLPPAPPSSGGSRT
FGFR2, sequence (P21802 22-821): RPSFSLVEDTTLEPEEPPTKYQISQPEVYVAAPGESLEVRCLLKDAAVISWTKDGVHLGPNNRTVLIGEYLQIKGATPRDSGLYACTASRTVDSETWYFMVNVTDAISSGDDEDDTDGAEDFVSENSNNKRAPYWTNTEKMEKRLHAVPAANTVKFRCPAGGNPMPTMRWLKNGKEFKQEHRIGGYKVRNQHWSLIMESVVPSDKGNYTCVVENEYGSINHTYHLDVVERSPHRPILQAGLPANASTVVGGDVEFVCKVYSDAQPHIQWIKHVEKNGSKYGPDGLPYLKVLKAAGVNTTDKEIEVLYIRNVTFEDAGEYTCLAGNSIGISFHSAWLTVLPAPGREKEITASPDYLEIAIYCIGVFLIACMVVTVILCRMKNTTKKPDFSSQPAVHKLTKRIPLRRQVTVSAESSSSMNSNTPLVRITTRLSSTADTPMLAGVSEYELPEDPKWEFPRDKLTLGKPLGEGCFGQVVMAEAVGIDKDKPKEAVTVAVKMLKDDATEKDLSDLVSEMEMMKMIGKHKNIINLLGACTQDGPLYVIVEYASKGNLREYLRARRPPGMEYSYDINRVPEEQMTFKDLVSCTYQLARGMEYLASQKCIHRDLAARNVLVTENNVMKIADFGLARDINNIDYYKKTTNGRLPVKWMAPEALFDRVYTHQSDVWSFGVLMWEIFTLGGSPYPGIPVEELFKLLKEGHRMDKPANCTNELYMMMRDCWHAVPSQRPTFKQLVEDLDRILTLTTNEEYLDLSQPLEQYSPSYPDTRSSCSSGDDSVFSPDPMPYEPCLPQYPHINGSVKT
FGFR1, sequence (P11362 22-822): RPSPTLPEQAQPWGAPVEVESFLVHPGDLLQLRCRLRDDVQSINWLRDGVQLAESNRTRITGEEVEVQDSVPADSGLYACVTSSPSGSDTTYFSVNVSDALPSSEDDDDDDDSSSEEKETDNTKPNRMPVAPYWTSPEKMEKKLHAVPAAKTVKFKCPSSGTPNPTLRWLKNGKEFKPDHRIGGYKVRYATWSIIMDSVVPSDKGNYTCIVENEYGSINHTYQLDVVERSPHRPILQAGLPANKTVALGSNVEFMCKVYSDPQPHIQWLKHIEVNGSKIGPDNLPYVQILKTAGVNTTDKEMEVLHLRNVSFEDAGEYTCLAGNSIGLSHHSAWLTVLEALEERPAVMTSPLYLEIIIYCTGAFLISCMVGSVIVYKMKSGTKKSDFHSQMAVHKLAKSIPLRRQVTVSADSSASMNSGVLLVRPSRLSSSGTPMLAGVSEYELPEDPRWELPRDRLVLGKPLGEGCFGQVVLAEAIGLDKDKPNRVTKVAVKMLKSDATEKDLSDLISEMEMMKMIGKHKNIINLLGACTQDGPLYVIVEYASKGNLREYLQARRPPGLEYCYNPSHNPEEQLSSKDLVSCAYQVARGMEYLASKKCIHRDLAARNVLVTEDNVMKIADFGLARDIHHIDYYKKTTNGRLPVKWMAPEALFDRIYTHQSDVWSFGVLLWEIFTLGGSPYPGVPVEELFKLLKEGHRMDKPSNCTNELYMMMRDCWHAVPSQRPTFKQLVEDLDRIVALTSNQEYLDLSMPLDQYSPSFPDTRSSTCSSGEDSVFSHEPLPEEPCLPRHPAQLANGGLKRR
FGFR3 (V555M), sequence (P22607 23-806 V555M): as the sequence (P22607 23-806) above, with V533M counted along it
FGFR4, sequence (P22455 22-802): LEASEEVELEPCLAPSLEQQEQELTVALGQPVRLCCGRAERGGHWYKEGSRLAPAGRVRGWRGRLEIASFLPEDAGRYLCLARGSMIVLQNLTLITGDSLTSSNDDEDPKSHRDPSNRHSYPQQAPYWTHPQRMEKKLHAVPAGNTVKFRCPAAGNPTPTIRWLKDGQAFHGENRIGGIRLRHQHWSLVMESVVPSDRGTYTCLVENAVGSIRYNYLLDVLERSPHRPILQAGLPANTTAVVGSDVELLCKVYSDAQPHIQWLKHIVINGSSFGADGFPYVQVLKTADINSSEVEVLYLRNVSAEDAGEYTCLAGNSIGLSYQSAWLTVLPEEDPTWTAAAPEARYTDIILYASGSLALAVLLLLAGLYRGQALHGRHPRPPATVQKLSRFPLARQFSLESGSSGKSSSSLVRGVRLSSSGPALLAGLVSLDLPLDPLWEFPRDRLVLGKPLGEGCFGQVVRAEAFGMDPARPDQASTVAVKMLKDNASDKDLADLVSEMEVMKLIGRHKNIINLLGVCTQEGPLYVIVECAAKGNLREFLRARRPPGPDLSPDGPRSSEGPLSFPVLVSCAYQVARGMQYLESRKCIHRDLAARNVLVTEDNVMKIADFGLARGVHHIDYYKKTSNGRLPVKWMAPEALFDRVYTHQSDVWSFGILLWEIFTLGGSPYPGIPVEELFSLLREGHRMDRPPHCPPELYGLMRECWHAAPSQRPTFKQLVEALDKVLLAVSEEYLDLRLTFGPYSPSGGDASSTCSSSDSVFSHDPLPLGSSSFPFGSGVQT

As for `C[C@@H](Oc1ccc2[nH]nc(-c3ccc(N4CC5(CNC5)C4)nc3)c2c1)c1c(Cl)cncc1Cl` [Example 45, 3-[6-(2,6-diazaspiro[3.3]heptan-2-yl)-3-pyridyl]-5-[(1R)-1-(3,5-dichloro-4-pyridyl)ethoxy]-1H-indazole], the Kd in assay [1], in assay [2], in assay [3], in assay [4] and in assay [5] was 1 to 20 nM each time.

In the case of `C[C@@H](Oc1ccc2[nH]nc(-c3cnc(Cl)nc3)c2c1)c1c(Cl)cncc1Cl` [Example 59, 3-(2-Chloropyrimidin-5-yl)-5-[(1R)-1-(3,5-dichloro-4-pyridyl)ethoxy]-1H-indazole], the Kd in assay [1] lay within 100 to 300 nM; in assay [2] it was 20 to 100 nM; in assay [3] it was 20 to 100 nM; in assay [4], 20 to 100 nM; in assay [5], 20 to 100 nM.

Take `C[C@@H](Oc1ccc2[nH]nc(-c3cnc(N4CCCNCC4)nc3)c2c1)c1c(Cl)cncc1Cl` [Example 61, 3-[2-(1,4-Diazepan-1-yl)pyrimidin-5-yl]-5-[(1R)-1-(3,5-dichloro-4-pyridyl)ethoxy]-1H-indazole]: the Kd is 20 to 100 nM in assay [1]; 1 to 20 nM in assay [2]; 1 to 20 nM in assay [3]; 1 to 20 nM in assay [4]; 1 to 20 nM in assay [5].

With `C[C@@H](Oc1ccc2[nH]nc(-c3cnn(C4CCN(S(C)(=O)=O)CC4)c3)c2c1)c1c(Cl)cncc1Cl` [Example 66, 5-[(1R)-1-(3,5-dichloro-4-pyridyl)ethoxy]-3-[1-(1-methylsulfonyl-4-piperidyl)pyrazol-4-yl]-1H-indazole], the Kd in assay [1], in assay [2], in assay [3], in assay [4] and in assay [5] was 1 to 20 nM throughout.

Consider `C[C@@H](Oc1ccc2[nH]nc(-c3ccc(C4CCNCC4)nc3)c2c1)c1c(Cl)cncc1Cl` [Example 69, 5-[(1R)-1-(3,5-dichloro-4-pyridyl)ethoxy]-3-[6-(4-piperidyl)-3-pyridyl]-1H-indazole], for which the Kd in assay [1], in assay [2], in assay [3], in assay [4] and in assay [5] was 1 to 20 nM throughout.

As for `C[C@@H](Oc1ccc2[nH]nc(-c3ccc(N4CC5(CCN(S(C)(=O)=O)CC5)OC4=O)nc3)c2c1)c1c(Cl)cncc1Cl` [Example 76, 3-[5-[5-[(1R)-1-(3,5-dichloro-4-pyridyl)ethoxy]-1H-indazol-3-yl]-2-pyridyl]-8-methylsulfonyl-1-oxa-3,8-diazaspiro[4.5]decan-2-one], the dissociation constant (Kd) was 20 to 100 nM in assay [1]; 20 to 100 nM in assay [2]; 1 to 20 nM in assay [3]; 1 to 20 nM in assay [4]; 1 to 20 nM in assay [5].

In the case of `C[C@@H](Oc1ccc2[nH]nc(-c3cnn(C4CCN(C(=O)CN(C)C)CC4)c3)c2c1)c1c(Cl)cncc1Cl` [Example 81, 1-[4-[4-[5-[(1R)-1-(3,5-dichloro-4-pyridyl)ethoxy]-1H-indazol-3-yl]pyrazol-1-yl]-1-piperidyl]-2-(dimethylamino)ethanone], the Kd in assay [1], in assay [2], in assay [3], in assay [4] and in assay [5] was 1 to 20 nM throughout.

Regarding `CC(C)N1CCC(n2cc(-c3n[nH]c4ccc(O[C@H](C)c5c(Cl)cncc5Cl)cc34)cn2)CC1` [Example 83, 5-[(1R)-1-(3,5-dichloro-4-pyridyl)ethoxy]-3-[1-(1-isopropyl-4-piperidyl)pyrazol-4-yl]-1H-indazole], the dissociation constant (Kd) was in the range of 1 to 20 nM in assay [1]; 1 to 20 nM in assay [2]; 20 to 100 nM in assay [3]; 1 to 20 nM in assay [4]; 1 to 20 nM in assay [5].

Regarding `CC(C)N1CC[C@@H](n2cc(-c3n[nH]c4ccc(O[C@H](C)c5c(Cl)cncc5Cl)cc34)cn2)C1` [Example 84, 5-[(1R)-1-(3,5-dichloro-4-pyridyl)ethoxy]-3-[(1R)-1-(1-isopropylpyrrolidin-3-yl)pyrazol-4-yl]-1H-indazole], the Kd in assay [1] lay in the range of 1 to 20 nM; in assay [2] it was 1 to 20 nM; in assay [3], 20 to 100 nM; in assay [4], 1 to 20 nM; in assay [5] it was 1 to 20 nM.

Turning to `C[C@@H](Oc1ccc2[nH]nc(-c3cnn(C4CNC4)c3)c2c1)c1c(Cl)cncc1Cl` [Example 85, 3-[1-(azetidin-3-yl)pyrazol-4-yl]-5-[(1R)-1-(3,5-dichloro-4-pyridyl)ethoxy]-1H-indazole], the Kd in assay [1], in assay [2], in assay [3], in assay [4] and in assay [5] was 1 to 20 nM throughout.

With `CC(C)N1CC(n2cc(-c3n[nH]c4ccc(O[C@H](C)c5c(Cl)cncc5Cl)cc34)cn2)C1` [Example 86, 5-[(1R)-1-(3,5-dichloro-4-pyridyl)ethoxy]-3-[1-(1-isopropylazetidin-3-yl)pyrazol-4-yl]-1H-indazole], the Kd in assay [1], in assay [2], in assay [3], in assay [4] and in assay [5] was 1 to 20 nM each time.

In the case of `CCN1CC[C@H](n2cc(-c3n[nH]c4ccc(O[C@H](C)c5c(Cl)cncc5Cl)cc34)cn2)C1` [Example 89, 5-[(1R)-1-(3,5-dichloro-4-pyridyl)ethoxy]-3-[1-[(3S)-1-ethylpyrrolidin-3-yl]pyrazol-4-yl]-1H-indazole], the dissociation constant (Kd) is 1 to 20 nM in assay [1]; 1 to 20 nM in assay [2]; 20 to 100 nM in assay [3]; 1 to 20 nM in assay [4]; 1 to 20 nM in assay [5].

Take `C[C@@H](Oc1ccc2[nH]nc(-c3ccc(N4CC5(CCN5)C4)nc3)c2c1)c1c(Cl)cncc1Cl` [Example 99, 3-[6-(1,6-diazaspiro[3.3]heptan-6-yl)-3-pyridyl]-5-[(1R)-1-(3,5-dichloro-4-pyridyl)ethoxy]-1H-indazole]: the Kd in assay [1], in assay [2], in assay [3], in assay [4] and in assay [5] was 1 to 20 nM each time.

Turning to `Cc1cc(-c2n[nH]c3ccc(O[C@H](C)c4c(Cl)cncc4Cl)cc23)cnc1N1CCOCC1` [Example 101, 4-[5-[5-[(1R)-1-(3,5-dichloro-4-pyridyl)ethoxy]-1H-indazol-3-yl]-3-methyl-2-pyridyl]morpholine], the Kd in assay [1] was in the range of 20 to 100 nM; in assay [2], 20 to 100 nM; in assay [3] it was 1 to 20 nM; in assay [4] it was 1 to 20 nM; in assay [5] it was 1 to 20 nM.

Turning to `C[C@@H](Oc1ccc2[nH]nc(-c3cnc(N4CCOCC4)c(C#N)c3)c2c1)c1c(Cl)cncc1Cl` [Example 102, 5-[5-[(1R)-1-(3,5-dichloro-4-pyridyl)ethoxy]-1H-indazol-3-yl]-2-morpholino-pyridine-3-carbonitrile], the Kd fell in the range of 20 to 100 nM in assay [1]; 20 to 100 nM in assay [2]; 1 to 20 nM in assay [3]; 1 to 20 nM in assay [4]; 1 to 20 nM in assay [5].

With `C[C@@H](Oc1ccc2[nH]nc(-c3ccc(N4CCOCC4)cn3)c2c1)c1c(Cl)cncc1Cl` [Example 103, 4-[6-[5-[(1R)-1-(3,5-dichloro-4-pyridyl)ethoxy]-1H-indazol-3-yl]-3-pyridyl]morpholine], the Kd in assay [1] is 20 to 100 nM; in assay [2], 1 to 20 nM; in assay [3] it was 1 to 20 nM; in assay [4], 1 to 20 nM; in assay [5], 1 to 20 nM.

Regarding `COc1cc(-c2n[nH]c3ccc(O[C@H](C)c4c(Cl)cncc4Cl)cc23)cnc1N1CCOCC1` [Example 105, 4-[5-[5-[(1R)-1-(3,5-dichloro-4-pyridyl)ethoxy]-1H-indazol-3-yl]-3-methoxy-2-pyridyl]morpholine], the equilibrium dissociation constant (Kd) in assay [1] is more than 300 nM; in assay [2] it was more than 300 nM; in assay [3], 20 to 100 nM; in assay [4], 100 to 300 nM; in assay [5], 100 to 300 nM.

Consider `Cc1cnnc(C)c1[C@@H](C)Oc1ccc2[nH]nc(-c3cnc(N4CCCC4)c(C#N)c3)c2c1` [Example 173, 5-[5-[(1R)-1-(3,5-dimethylpyridazin-4-yl)ethoxy]-1H-indazol-3-yl]-2-pyrrolidin-1-yl-pyridine-3-carbonitrile], for which the Kd is 100 to 300 nM in assay [2], 1 to 20 nM in assay [3], 20 to 100 nM in assay [4] and 20 to 100 nM in assay [5].

As to `CCN1C2CC1CN(c1ccc(-c3n[nH]c4cc(OC)c(O[C@H](C)c5c(C)cnnc5C)cc34)cn1)C2` [Example 213, 3-(5-(5-((R)-1-(3,5-dimethylpyridazin-4-yl)ethoxy)-6-methoxy-1H-indazol-3-yl)pyridin-2-yl)-6-ethyl-3,6-diazabicyclo[3.1.1]heptane], the Kd in assay [2], in assay [3], in assay [4] and in assay [5] was 1 to 20 nM throughout.

Regarding `C[C@@H](Oc1ccc2[nH]nc(-c3ccc(N4CC5(CCOC5)C4)nc3)c2c1)c1c(Cl)cnnc1Cl` [Example 223, (R)-2-(5-(5-(1-(3,5-dichloropyridazin-4-yl)ethoxy)-1H-indazol-3-yl)pyridin-2-yl)-6-oxa-2-azaspiro[3.4]octane], the Kd in assay [1] was in the range of 100 to 300 nM; in assay [4] it was 20 to 100 nM; in assay [5] it was 20 to 100 nM.
